Experiments:
[1] = biological target: T1, TIP60-KAT5 (Homo sapiens, UniProt Q92993); test: Acetyltransferase biochemical assay (AlphaScreen), KAT5; details: Table 1 (TIP60-KAT5); 0.4 μM Acetyl coenzyme A, histone H4, 10 nM enzyme
T1 construct: encoding amino acid residues 2 to 461 (Uniprot Q92993-2) of human KAT5 isoform; made in house; host or cells: E. coli BL21 DE3

[2] = biological target: T2, MOF-KAT8 (Homo sapiens, UniProt Q9H7Z6); test: Revised Acetyltransferase Biochemical Assay, KAT8
T2 sequence (Q9H7Z6 177-447): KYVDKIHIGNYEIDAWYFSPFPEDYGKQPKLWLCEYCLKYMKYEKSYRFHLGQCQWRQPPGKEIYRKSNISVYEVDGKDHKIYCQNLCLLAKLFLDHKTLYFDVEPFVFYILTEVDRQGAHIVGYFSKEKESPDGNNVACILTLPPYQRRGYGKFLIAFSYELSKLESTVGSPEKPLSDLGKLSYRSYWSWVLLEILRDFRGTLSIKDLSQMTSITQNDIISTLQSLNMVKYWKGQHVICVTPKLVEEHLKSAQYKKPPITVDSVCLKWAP

[3] = biological target: T3, HBO-KAT7 (Homo sapiens, UniProt O95251); test: Revised Acetyltransferase Biochemical Assay, KAT7; details: Table 9 (HBO-KAT7), 1 μM Acetyl coenzyme A
T3 construct: encoding amino acid residues 325 to 611 (Uniprot 095251-1) of human KAT7; made in house; host or cells: E. coli BL21 DE3 RIL
T3 sequence (O95251 with tags, fused parts or gaps): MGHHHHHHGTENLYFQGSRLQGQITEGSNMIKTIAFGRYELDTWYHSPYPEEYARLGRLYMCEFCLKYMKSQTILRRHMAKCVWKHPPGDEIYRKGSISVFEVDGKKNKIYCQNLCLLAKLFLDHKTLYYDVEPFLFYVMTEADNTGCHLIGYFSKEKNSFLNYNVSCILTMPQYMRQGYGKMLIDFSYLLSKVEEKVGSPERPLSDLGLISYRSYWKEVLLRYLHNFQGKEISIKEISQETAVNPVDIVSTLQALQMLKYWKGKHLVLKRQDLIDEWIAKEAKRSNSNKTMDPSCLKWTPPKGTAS

[4] = biological target: T4, MOZ-KAT6A (Homo sapiens, UniProt Q92794, A567V); test: Revised Acetyltransferase Biochemical Assay, KAT6A; details: Table 8 (MOZ-KAT6A), 1 μM Acetyl coenzyme A
T4 construct: encoding amino acid residues 507 to 778 (Uniprot Q92794-1) of human KAT6A; made in house; host or cells: E. coli BL21 DE3
T4 sequence (Q92794 507-778 A567V limits assumed): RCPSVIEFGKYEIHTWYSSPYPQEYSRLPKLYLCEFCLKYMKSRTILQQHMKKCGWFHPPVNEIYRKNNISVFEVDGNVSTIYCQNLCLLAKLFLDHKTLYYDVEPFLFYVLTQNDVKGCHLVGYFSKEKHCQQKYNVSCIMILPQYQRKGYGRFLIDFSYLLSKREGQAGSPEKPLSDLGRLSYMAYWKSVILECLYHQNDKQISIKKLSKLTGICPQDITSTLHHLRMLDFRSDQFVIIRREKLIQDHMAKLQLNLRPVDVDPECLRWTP

[5] = system: histone H3K23 acetylation (KATE mediated) in U2OS cells; test: Histone H3 Lysine 23 Acetylation Biomarker Assay (U2OS); type: cell-based; details: Homo sapiens, 96 well, 24 hours incubation
Method: Compounds may be tested for their ability to inhibit acetylation of the histone H3K23 marker, which is KATE mediated, in the following assay:
The cell line U2OS was seeded at a density of 9,000 cells per well in 96 well optical quality tissue culture plates in RPMI medium and 10% foetal bovine serum, and allowed to adhere for 24 hours under standard culture conditions (37 degree Celsius, 5% CO2). At the end of this period the medium was aspirated. Compound dilutions prepared in DMSO were added to medium, with negative control wells reserved for treatment with DMSO only and 100% inhibition positive controls receiving a potent inhibitor compound (e.g. cas 2055397-28-7, benzoic acid, 3-fluoro-5-(2-pyridinyl)-, 2-[(2-fluorophenyl)sulfonyl]hydrazide) (Baell, J., Nguyen, H. N., Leaver, D. J., Cleary, B. L., Lagiakos, H. R., Sheikh, B. N., Thomas. T. J., Aryl sulfonohydrazides, WO2016198507A1, 2016) at 10 μM concentration and 200 μL transferred to the cells. After incubation for 24 hours, the cells were fixed with 3.7% formaldehyde in PBS for 20 minutes at room temperature, washed (5×5 minutes) with phosphate buffer saline containing 0.1% Tween 20 and blocked with Odyssey blocking buffer (LI-COR, Lincoln, Nebr.) containing 0.1% TritonX100. Anti-H3K23ac specific antibody (Abcam ab177275) in Odyssey blocking buffer containing 0.1% Tween 20 was added and incubated for 16 hours at 4 degree Celsius. After washing (as above), a secondary antibody labelled with Alexa647 dye (LifeTechnologies) and Hoechst 33342 (1 μg/mL, SigmaAldrich) were added for 1 hour incubation. Plates were washed as previously and read on a PerkinElmer Phenix high content imaging platform. Using a Columbus image analysis pipeline, individual nuclei were located by Hoechst 33342 stain and the acetylation level was calculated from the Alexa647-related intensity in the same area. The resulting mean intensity per cell was directly converted to percent inhibition relative to controls on the same plate and the data fitted against a four-parameter logistic model to determine the 50% inhibitory concentration (IC50).

[6] = biological target: T3, HBO-KAT7; test: Acetyltransferase biochemical assay (AlphaScreen), KAT7; details: Table 3 (HBO-KAT7); 0.4 μM Acetyl coenzyme A, histone H3.1, 40 nM enzyme
[7] = biological target: T1, TIP60-KAT5; test: Revised Acetyltransferase Biochemical Assay, KAT5; details: 10 nM KAT5, 1 μM AcCoA, 100 nM histone H4, 90 min
[8] = biological target: T5, QKF-KAT6B (Homo sapiens, UniProt Q8WYB5); test: Revised Acetyltransferase Biochemical Assay, KAT6B; details: 8 nM KAT6B, 1 μM AcCoA, 100 nM histone H3.1, 90 min
T5 construct: purchased SignalChem K315-381BG
T5 sequence (Q8WYB5 whole entry): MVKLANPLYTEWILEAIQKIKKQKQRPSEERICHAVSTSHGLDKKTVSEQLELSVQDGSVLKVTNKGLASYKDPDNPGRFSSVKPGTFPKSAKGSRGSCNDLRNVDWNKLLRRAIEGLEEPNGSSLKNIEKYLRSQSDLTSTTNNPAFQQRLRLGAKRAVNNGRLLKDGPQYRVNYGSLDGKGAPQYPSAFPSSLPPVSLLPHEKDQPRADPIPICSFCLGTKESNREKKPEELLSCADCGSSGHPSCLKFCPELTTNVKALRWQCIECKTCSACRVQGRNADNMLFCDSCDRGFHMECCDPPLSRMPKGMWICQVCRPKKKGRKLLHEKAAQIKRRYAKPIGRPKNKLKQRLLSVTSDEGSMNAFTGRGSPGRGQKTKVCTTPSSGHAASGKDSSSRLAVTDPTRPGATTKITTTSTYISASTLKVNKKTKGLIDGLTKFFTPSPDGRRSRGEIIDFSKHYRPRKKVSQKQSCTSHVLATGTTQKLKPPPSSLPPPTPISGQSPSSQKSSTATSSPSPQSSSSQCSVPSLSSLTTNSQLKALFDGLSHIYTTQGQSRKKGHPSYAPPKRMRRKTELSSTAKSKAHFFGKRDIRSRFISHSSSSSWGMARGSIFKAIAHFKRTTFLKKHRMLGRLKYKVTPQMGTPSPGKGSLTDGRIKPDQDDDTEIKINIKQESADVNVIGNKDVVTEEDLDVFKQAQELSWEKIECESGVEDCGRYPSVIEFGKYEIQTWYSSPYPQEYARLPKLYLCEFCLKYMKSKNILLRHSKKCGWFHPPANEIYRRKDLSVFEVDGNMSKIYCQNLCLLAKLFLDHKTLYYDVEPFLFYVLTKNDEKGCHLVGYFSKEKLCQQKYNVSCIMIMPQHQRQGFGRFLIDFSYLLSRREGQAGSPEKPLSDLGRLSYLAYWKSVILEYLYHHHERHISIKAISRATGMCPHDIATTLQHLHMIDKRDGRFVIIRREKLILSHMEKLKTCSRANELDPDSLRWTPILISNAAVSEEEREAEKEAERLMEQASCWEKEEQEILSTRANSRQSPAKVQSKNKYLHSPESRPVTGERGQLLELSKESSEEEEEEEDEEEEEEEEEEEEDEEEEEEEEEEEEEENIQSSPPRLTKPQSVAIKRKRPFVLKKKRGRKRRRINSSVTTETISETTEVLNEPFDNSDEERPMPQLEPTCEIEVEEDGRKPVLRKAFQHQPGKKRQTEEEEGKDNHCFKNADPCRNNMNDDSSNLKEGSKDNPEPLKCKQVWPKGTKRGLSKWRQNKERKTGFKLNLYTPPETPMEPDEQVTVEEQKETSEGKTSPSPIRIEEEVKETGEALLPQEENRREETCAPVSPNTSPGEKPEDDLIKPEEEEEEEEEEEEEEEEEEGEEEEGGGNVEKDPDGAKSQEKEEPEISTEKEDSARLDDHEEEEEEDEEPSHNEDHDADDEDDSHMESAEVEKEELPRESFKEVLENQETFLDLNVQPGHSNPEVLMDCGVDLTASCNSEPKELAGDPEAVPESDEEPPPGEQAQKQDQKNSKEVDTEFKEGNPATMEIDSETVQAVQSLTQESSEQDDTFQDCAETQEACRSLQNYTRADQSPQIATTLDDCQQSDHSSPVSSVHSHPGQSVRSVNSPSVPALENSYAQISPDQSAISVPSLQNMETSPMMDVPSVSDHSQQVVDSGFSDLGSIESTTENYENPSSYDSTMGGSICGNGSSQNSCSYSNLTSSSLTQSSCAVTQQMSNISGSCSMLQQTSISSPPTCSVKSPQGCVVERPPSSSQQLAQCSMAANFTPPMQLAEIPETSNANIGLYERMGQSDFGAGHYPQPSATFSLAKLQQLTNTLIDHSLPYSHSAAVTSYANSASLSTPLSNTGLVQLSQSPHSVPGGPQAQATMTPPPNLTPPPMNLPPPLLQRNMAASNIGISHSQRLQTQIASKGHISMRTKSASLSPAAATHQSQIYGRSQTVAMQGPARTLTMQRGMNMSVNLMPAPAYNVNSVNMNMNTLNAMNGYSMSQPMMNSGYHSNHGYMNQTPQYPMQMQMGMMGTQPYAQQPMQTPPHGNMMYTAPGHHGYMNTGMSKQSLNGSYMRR
Description: KAT6B was obtained from SignalChem, catalog ID: K315-381BG

[9] = system: histone H3 Lysine 14 acetylation (HBO1 mediated) in U2OS cells; test: Histone H3 Lysine 14 Acetylation Biomarker Assay (384-well, U2OS); type: cell-based; details: Homo sapiens, serum free medium, 24 hours incubation
Method: Compounds may be tested for their ability to inhibit acetylation of the histone H3 Lysine 14 (which is HBO1 mediated) marker in the following assay:
The cell line U2OS was seeded at a density of 3,000 cells per well in 384-well optical quality tissue culture plates in RPMI medium supplemented with 10% foetal bovine serum and 10 mM Hepes. The cells were allowed to adhere for 24 hours under standard culture conditions (37 degree Celsius, 5% CO2). At the end of this period the cells were washed with serum free medium. Compound dilutions prepared in DMSO were added to the serum free medium, with negative control wells reserved for treatment with DMSO only and 100% inhibition positive controls receiving a potent inhibitor compound (e.g. (Z)-4-fluoro-N-((3-hydroxyphenyl)sulfonyl)-5-methyl-[1,1′-biphenyl]-3-carbohydrazonic acid) at 10 μM concentration. After incubation for 24 hours, the cells were fixed with 4% formaldehyde in PBS for 15 minutes at room temperature, washed with phosphate buffer saline and blocked with blocking buffer containing 0.2% TritonX100 and 2% BSA. Anti-H3K14ac specific antibody (Cell Signalling Technologies) in blocking buffer was added and incubated overnight at 4 degree Celsius. After washing, a secondary antibody labelled with AlexaFluor 488 dye (ThermoFisher) and Hoechst 33342 (1 μg/mL, Life Technologies) were added for 2 hours incubation at room temperature. Plates were washed and read on a
PerkinElmer Opera HCS high content imaging platform. Using a Columbus image analysis pipeline, individual nuclei were located by Hoechst 33342 stain and the acetylation level was calculated from the AlexaFluor 488-related intensity in the same area. The resulting mean intensity per cell was converted to percent inhibition relative to controls on the same plate and the data fitted against a four-parameter logistic model to determine the 50% inhibitory concentration (IC50).

[10] = system: histone H2A.Z Lysine 7 acetylation (TIP60 mediated) in U2OS cells; test: H2A.Z Lysine 7 Acetylation Biomarker Assay (384-well, U2OS); type: cell-based; details: Homo sapiens, serum free medium, 24 hours incubation
Method: Compounds may be tested for their ability to inhibit the histone H2A.Z Lysine 7 acetylation marker (which is TIP60 mediated) in the following assay:
The cell line U2OS was seeded at a density of 3,000 cells per well in 384-well optical quality tissue culture plates in RPMI medium supplemented with 10% foetal bovine serum and 10 mM Hepes. The cells were allowed to adhere for 24 hours under standard culture conditions (37 degree Celsius, 5% CO2). At the end of this period the cells were washed with serum free medium. […] After incubation for 24 hours, the cells were fixed with 4% formaldehyde in PBS for 15 minutes at room temperature, washed with phosphate buffer saline and blocked with blocking buffer containing 0.2% TritonX100 and 2% BSA. Anti-H2A.ZK7ac specific antibody (Abcam) in blocking buffer was added and incubated overnight at 4 degree Celsius. After washing, a secondary antibody labelled with AlexaFluor 488 dye (ThermoFisher) and Hoechst 33342 (1 μg/mL, Life Technologies) were added for 2 hours incubation at room temperature. Plates were washed and read on a PerkinElmer Opera HCS high content imaging platform. Using a Columbus image analysis pipeline, individual nuclei were located by Hoechst 33342 stain and the acetylation level was calculated from the AlexaFluor 488-related intensity in the same area. The resulting mean intensity per cell was converted to percent inhibition relative to controls on the same plate and the data fitted against a four-parameter logistic model to determine the 50% inhibitory concentration (IC50).

[11] = biological target: T2, MOF-KAT8; test: Acetyltransferase biochemical assay (AlphaScreen), KAT8; details: Table 4 (MOF-KAT8); 0.4 μM Acetyl coenzyme A, histone H4, 20 nM enzyme

T1 sequence (Q92993 2-461 isoform Q92993-2): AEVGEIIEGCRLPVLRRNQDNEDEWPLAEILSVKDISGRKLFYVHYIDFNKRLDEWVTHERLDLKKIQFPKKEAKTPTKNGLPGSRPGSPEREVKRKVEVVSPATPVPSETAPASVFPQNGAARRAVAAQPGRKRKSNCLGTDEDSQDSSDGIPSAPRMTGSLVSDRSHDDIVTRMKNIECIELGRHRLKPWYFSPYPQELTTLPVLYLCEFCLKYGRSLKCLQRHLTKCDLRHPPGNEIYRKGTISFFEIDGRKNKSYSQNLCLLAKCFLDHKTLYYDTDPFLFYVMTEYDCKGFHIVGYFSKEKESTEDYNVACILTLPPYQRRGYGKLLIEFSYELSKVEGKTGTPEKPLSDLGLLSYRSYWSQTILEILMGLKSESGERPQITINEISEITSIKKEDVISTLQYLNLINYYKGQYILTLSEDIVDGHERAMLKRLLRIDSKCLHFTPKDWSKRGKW

Compound	IC50 [1] [nM]	IC50 [2] [nM]	IC50 [3] [nM]	IC50 [4] [nM]	IC50 [5] [nM]	IC50 [6] [nM]	IC50 [7] [nM]	IC50 [8] [nM]	IC50 [9] [nM]	IC50 [10] [nM]	IC50 [11] [nM]
COCc1ccccc1CCNC(=O)C1=Nc2ccc(I)cc2S(=O)(=O)N1 [Example 14, 7-Iodo-N-(2-(methoxymethyl)phenethyl)-2H-benzo[e][1,2,4]thiadiazine-3-carboxamide 1,1-dioxide]	2360	37800	83	10	1060	1780	156	58	–	–	–
O=C(NCC(c1ccccc1)c1ncc[nH]1)C1=Nc2ccccc2S(=O)(=O)N1 (stereo not shown) [Example 113]	> 125000	> 125000	6410	99000	> 10000	–	> 125000	> 125000	–	–	–
COc1cc(C)cc(C(CNC(=O)C2=Nc3ccc(Cl)cc3S(=O)(=O)N2)c2ncco2)c1 (stereo not shown) [Example 159, 7-chloro-N-(2-(3-methoxy-5-methylphenyl)-2-(oxazol-2-yl)ethyl)-2H-benzo[e][1,2,4]thiadiazine-3-carboxamide 1,1-dioxide]	–	16300	295	371	5090	–	3200	4050	–	–	–
O=C(NCC(F)(c1ccccc1)c1ncco1)C1=Nc2ccc(Cl)cc2S(=O)(=O)N1 (stereo not shown) [Example 175]	–	30200	478	13	154	162	311	–	1840	11900	29300
COc1cccc(C(CNC(=O)C2=Nc3ccc(Cl)cc3S(=O)(=O)N2)c2ncco2)c1 (stereo not shown) [Example 176, 7-chloro-N-(2-(3-methoxyphenyl)-2-(oxazol-2-yl)ethyl)-2H-benzo[e][1,2,4]thiadiazine-3-carboxamide 1,1-dioxide]	–	30200	869	76	–	207	5110	–	4430	15400	92900
O=C(NCC(F)(c1ccccc1)c1ncco1)C1=Nc2ccc(I)cc2S(=O)(=O)N1 (stereo not shown) [Example 177]	–	8210	124	4	195	64	23	–	1030	1180	6250
O=C(NCC(c1ccccc1)c1n[nH]c(=O)o1)C1=Nc2ccc(I)cc2S(=O)(=O)N1 (stereo not shown) [Example 186]	–	–	1960	24	> 10000	–	734	–	> 40000	> 40000	71500
Cn1nc(-c2ccccc2CCNC(=O)C2=Nc3ccc(Cl)cc3S(=O)(=O)N2)oc1=O [Example 193]	–	–	1940	493	9080	–	4170	–	31200	> 40000	–
O=C(NCC1(c2ccccn2)CCCCC1)C1=Nc2ccc(Cl)cc2S(=O)(=O)N1 [Example 197]	–	–	7530	290	3040	–	23600	780	–	–	–
O=C(NCC1(c2ccccn2)CCCC1)C1=Nc2ccc(Cl)cc2S(=O)(=O)N1 [Example 198]	–	–	8370	351	5200	–	42300	1380	–	–	–
O=C(NCC(CO)C1CCCCC1)C1=Nc2ccc(Cl)cc2S(=O)(=O)N1 (stereo not shown) [Example 199]	–	–	6570	838	10000	–	15600	6170	–	–	–
O=C(NCCC1CCCCC1)C1=Nc2ccc(Cl)cc2S(=O)(=O)N1 [Example 202]	–	–	> 125000	1040	> 10000	–	> 125000	> 125000	–	–	–
O=C(NCC(c1cccc(O)c1)c1ncco1)C1=Nc2ccc(Cl)cc2S(=O)(=O)N1 (stereo not shown) [Example 216, 7-Chloro-N-(2-(3-hydroxyphenyl)-2-(oxazol-2-yl)ethyl)-2H-benzo[e][1,2,4]thiadiazine-3-carboxamide 1,1-dioxide]	–	58600	152	28	–	63	506	–	14100	15900	64300
Cc1cc(O)cc(C(CNC(=O)C2=Nc3ccc(I)cc3S(=O)(=O)N2)c2ncco2)c1 (stereo not shown) [Example 222, N-(2-(3-Hydroxy-5-methylphenyl)-2-(oxazol-2-yl)ethyl)-7-iodo-2H-benzo[e][1,2,4]thiadiazine-3-carboxamide 1,1-dioxide]	–	–	23	131	7150	–	149	–	437	1280	–

Reference: US20210380548A1, “Fused [1,2,4]Thiadiazine Derivatives Which Act as KAT Inhibitors of the MYST Family” (CTxT Pty Limited, priority 2017, published 2021)
